The NIST ThermoML archive (doi:10.1021/acs.jced.8b00400)
± gives the expanded uncertainty stated by the source.

Assay: osmotic coefficient (dimensionless); mn = molality of the nth substance listed, in mol/kg
Conditions: 298.15 K, 100 kPa, Liquid, isopiestic method

Row | osmotic coefficient (m1 = 0.9956) | osmotic coefficient (m1 = 2.002) | osmotic coefficient (m1 = 1.004) | osmotic coefficient (m1 = 2.01) | SMILES
1 | 0.901 ± 0.011 | 0.916 ± 0.011 | – | – | [Cl-].[K+] [potassium chloride] + O
2 | – | – | 0.9589 ± 0.0089 | 1.032 ± 0.0089 | [Na+].[OH-] [sodium hydroxide] + O
